Broadly, the Emax is the greatest response seen or fitted, relative to the assay's reference. The AC50 is the concentration at which the activity in the assay is half-maximal. A word on the IC50: it is the concentration that gives 50% inhibition. Broadly, the Kd is the concentration at which binding is half-saturated.

Results on eight compounds are retold here after patent US20260374766A1, “METHODS FOR TREATING CANCER” (Antares Therapeutics, Inc., priority 2022, published 2026).

One assay has as its target p53 Y220C (Homo sapiens, UniProt P04637, Y220C). Briefly: Luciferase Reporter Assay (Luc), p53 response element, NClH1299 cells with inducible p53 Y220C. Format: cell-based. The conditions noted are these: luciferase reporter, NClH1299 inducible p53 Y220C, 6 hour; for AC50: read-out: Luc P53 Y220C AC50. In outline:
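Doxycycline (0.5 ug/mL, 24 h) induces the mutant before a 6-hour compound treatment. Reporter activity is then quantified by One-Glo luminescence.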
A general note: A reporter such as luciferase makes a cellular process visible.

The test system of a further assay is H1299 p53 Y220C. The assay is described as follows: Cell Proliferation Assay (CellTiter-Glo, CTG), H1299 p53 Y220C (NClH1299-inducible p53 Y220C). The conditions noted are these: Homo sapiens, NCI-H1299, 120 h, CellTiter-Glo, 5 days. Format: cell-based. The essentials:
(§1)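 Tet-One inducible p53 Y220C or R273H constructs were stably introduced into NCI-H1299 by lentiviral transduction; NUGC3 was used as is. Cells (250-500 per well) were exposed to compound for 5 days, then CellTiter-Glo was added for 10 min at room temperature and IC50 was calculated from luminescence.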
Background: Cellular ATP, detected with luciferase, serves as a proxy for viable cell number.

The target of assay [1] is T1, p53 Y220C mutant protein (amino acid residues 94-293) (Homo sapiens, UniProt P04637, Y220C).
T1 construct: p53 Y220C mutant protein (amino acid residues 94-293)
Briefly: Surface Plasmon Resonance (SPR) assay, Kd_kinetic. The conditions noted are these: read-out: SPR P53 Y220C KD kinetic. Format: binding. In outline:
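Kinetic dissociation constants derived by 1:1 model fit of SPR data acquired at 16 or 20 °C, pH 7.5 Tris/NaCl running buffer with 1% DMSO.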

The subject of the next assay is H1299 p53 R273H. The assay is described as follows: Cell Proliferation Assay (CellTiter-Glo, CTG), H1299 p53 R273H (NClH1299-inducible p53 R273H). The class given is cell-based. The conditions noted are these: Homo sapiens, NCI-H1299, 120 h, CellTiter-Glo, 5 days. In outline: as §1
In assay [2] the target is T1, p53 Y220C mutant protein (amino acid residues 94-293). The assay is described as follows: Thermal Shift Assay (TSA), dTM. Format: binding. The conditions noted are these: for ΔTm at 10 µM: 10 uM compound; for ΔTm at 100 µM: 100 uM compound. The essentials:
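TM is derived by fitting Sypro Orange melt curves (30 °C to 50 °C, 0.03 °C/second) to a Boltzmann two-state model. Beforehand, 5 μM p53 Y220C (94-293) sits with 10 μM or 100 μM compound for 3 hours at 20 °C in HEPES pH7.4 buffer containing 100 mM NaCl and 1% DMSO.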

A further assay relates to NUGC3 p53 Y220C. The assay is described as follows: Cell Proliferation Assay (CellTiter-Glo, CTG), NUGC3 p53 Y220C. Format: cell-based. The conditions noted are these: Homo sapiens, NUGC-3, 120 h, CellTiter-Glo, 5 days. In outline: as §1
Setting [3] is: 10 uM tool compound as positive control.
The mark [4] stands for this setting: thermal shift, read-out: TSA P53 Y220C dTM (10 uM).
Where [5] appears, read: thermal shift, read-out: TSA P53 Y220C dTM (100 uM).
[6] abbreviates: NClH1299-inducible p53 Y220C cells.
The mark [7] stands for this setting: NClH1299-inducible p53 R273H cells.
The mark [8] stands for this setting: p53 Y220C, read-out: TSA P53 Y220C dTM.

Read-outs that look alike come from different tables or passages of the source.

For `CNC(=O)c1ccc(OC)c(NCC#Cc2nc3c(N[C@@H]4CCN(C)C[C@@H]4F)cccn3c2CC(F)(F)F)n1` [Example 213], on p53 Y220C (setting [3]), the Emax is 70 to 80%. Further, at p53 Y220C, the AC50 is below 750 nM. In addition, the IC50 was below 750 nM with H1299 p53 Y220C (H1299 p53 Y220C), at least 10000 nM in the assay with H1299 p53 R273H (H1299 p53 R273H) and below 750 nM in the assay on NUGC3 p53 Y220C (NUGC3 p53 Y220C). In addition, the dissociation constant (Kd) in assay [1] was below 10 nM. Also, the ΔTm at 10 µM in assay [2] (setting [4]) was at least 10 °C. In addition, in assay [2] (setting [5]), the ΔTm at 100 µM was at least 10 °C.

In turn, `CNC(=O)c1ccc(NCC#Cc2nn3c(N[C@@H]4CCN(C)C[C@@H]4F)nccc3c2SC(F)F)c(OC)c1` [Example 215] yielded an Emax at p53 Y220C (setting [3]) above 90%. Moreover, the AC50 at p53 Y220C is below 750 nM. Moreover, the IC50 in the assay with H1299 p53 Y220C (H1299 p53 Y220C) is below 750 nM; with H1299 p53 R273H (H1299 p53 R273H), at least 10000 nM; with NUGC3 p53 Y220C (NUGC3 p53 Y220C), below 750 nM. In assay [1] (SPR, kinetic KD, p53 Y220C), the Kd is below 10 nM. In addition, in assay [2] (setting [4]), the ΔTm at 10 µM is at least 10 °C.

In turn, `CNC(=O)c1ccc(OC)c(NCC#Cc2nc3c(N[C@@H]4CCNC[C@@H]4F)cccn3c2SC(F)(F)F)n1` [Example 217] showed an Emax on p53 Y220C (setting [3]) of 70 to 80%. Moreover, the concentration at half-maximal activity (AC50) at p53 Y220C was below 750 nM. Moreover, the IC50 was below 750 nM in the assay with H1299 p53 Y220C (H1299 p53 Y220C), 5000 to 8000 nM with H1299 p53 R273H (H1299 p53 R273H) and below 750 nM in the assay with NUGC3 p53 Y220C (NUGC3 p53 Y220C). In addition, the Kd in assay [1] is below 10 nM. Also, the ΔTm at 10 µM in assay [2] (setting [4]) was at least 10 °C. The ΔTm at 100 µM in assay [2] (setting [5]) was at least 10 °C.

For `CNC(=O)c1ccc(OC)c(NCC#Cc2nc3c(N[C@@H]4CCNC[C@@H]4F)cccn3c2SC(F)(F)F)c1` [Example 218], the Emax on p53 Y220C (setting [3]) is 80 to 90%. In addition, at p53 Y220C, the AC50 is below 750 nM. Moreover, the IC50 was below 750 nM in the assay on H1299 p53 Y220C (H1299 p53 Y220C), at least 10000 nM in the assay on H1299 p53 R273H (H1299 p53 R273H) and below 750 nM with NUGC3 p53 Y220C (NUGC3 p53 Y220C). The Kd in assay [1] (SPR, kinetic KD, p53 Y220C) was below 10 nM. The ΔTm at 10 µM in assay [2] (setting [4]) was at least 10 °C. Also, the ΔTm at 100 µM in assay [2] (setting [5]) is at least 10 °C.

Take `CNC(=O)c1ccc(NCC#Cc2nn3c(N[C@@H]4CCN(C)C[C@@H]4F)cccc3c2SC(F)F)c(OC)c1` [Example 219, 4-[(3-{3-[(difluoromethyl)sulfanyl]-7-{[(3S,4R)-3-fluoro-1-methylpiperidin-4-yl]amino}pyrazolo[1,5-a]pyridin-2-yl}prop-2-yn-1-yl)amino]-3-methoxy-N-methylbenzamide]: at p53 Y220C (setting [3]), the Emax was in the range of 80 to 90%. The AC50 on p53 Y220C was below 750 nM. Besides, the IC50 was below 750 nM in the assay on H1299 p53 Y220C (H1299 p53 Y220C), 5000 to 8000 nM in the assay on H1299 p53 R273H (H1299 p53 R273H) and below 750 nM in the assay on NUGC3 p53 Y220C (NUGC3 p53 Y220C). In addition, in assay [1] (SPR, kinetic KD, p53 Y220C), the Kd was below 10 nM. Besides, in assay [2] (setting [4]), the ΔTm at 10 µM fell in the range of 5 to 10 °C. Besides, in assay [2] (setting [5]), the ΔTm at 100 µM lay in the range of 5 to 10 °C.

Regarding `CNC(=O)c1ccc(OC)c(NCC#Cc2nc3c(N[C@@H]4CCNC[C@@H]4F)cccn3c2CC(F)(F)F)c1` [Example 222], the Emax on p53 Y220C (setting [3]) was below 70%. The AC50 on p53 Y220C is above 3000 nM. Also, the values for the IC50 in the assay on H1299 p53 Y220C (H1299 p53 Y220C), in the assay with H1299 p53 R273H (H1299 p53 R273H) and with NUGC3 p53 Y220C (NUGC3 p53 Y220C) were 1500 to 3000 nM, at least 10000 nM and below 750 nM, respectively. Moreover, the Kd in assay [1] (SPR, kinetic KD, p53 Y220C) was below 10 nM. For the same compound, the ΔTm at 10 µM in assay [2] (setting [4]) was at least 10 °C. Besides, the ΔTm at 100 µM in assay [2] (setting [5]) was at least 10 °C.

On to `CNC(=O)c1ccc(NCC#Cc2nn3c(N[C@@H]4CCN(C)C[C@@H]4F)cccc3c2SC(F)(F)F)c(OC)c1` [Example 223, 4-{[3-(7-{[(3S,4R)-3-fluoro-1-methylpiperidin-4-yl]amino}-3-[(trifluoromethyl)sulfanyl]pyrazolo[1,5-a]pyridin-2-yl)prop-2-yn-1-yl]amino}-3-methoxy-N-methylbenzamide], for which, on p53 Y220C (AC50), the AC50 was below 750 nM. On p53 Y220C (Emax), this compound gave an Emax of 80 to 90%. For the same compound, the figures for the IC50 in the assay on H1299 p53 Y220C (setting [6]), in the assay on H1299 p53 R273H (setting [7]) and in the assay on NUGC3 p53 Y220C (NUGC3 cells) were below 750 nM, at least 10000 nM and below 750 nM, respectively. Moreover, the Kd in assay [1] (SPR, p53 Y220C) was below 10 nM. For the same compound, the ΔTm at 10 µM in assay [2] (setting [8]) is at least 10 °C. In assay [2] (setting [8]), the ΔTm at 100 µM was at least 10 °C.

For the compound `CNC(=O)c1ccc(NCC#Cc2nc3c(NC4COC4)cccn3c2SC(F)(F)F)c(OC)c1` [Example 225], the AC50 on p53 Y220C (AC50) lay in the range of 750 to 1500 nM. This compound had an Emax at p53 Y220C (Emax) of 80 to 90%. The values for the IC50 in the assay with H1299 p53 Y220C (setting [6]), with H1299 p53 R273H (setting [7]) and with NUGC3 p53 Y220C (NUGC3 cells) were 750 to 1500 nM, at least 10000 nM and 1500 to 3000 nM, respectively. The Kd in assay [1] (SPR, p53 Y220C) fell in the range of 10 to 100 nM. For the same compound, the ΔTm at 10 µM in assay [2] (setting [8]) fell in the range of 1 to 5 °C. For the same compound, in assay [2] (setting [8]), the ΔTm at 100 µM was in the range of 5 to 10 °C.
